Measured values published in patent publication EP1632479A2, “Piperazine derivatives useful as ccr5 antagonists” (SCHERING CORPORATION, priority 1999, dated 2000).

Target: T1, human CCR5 chemokine receptor (Homo sapiens, UniProt P51681)
T1 construct: expressed in transfected cells; host or cells: NIH 3T3 cells (murine), membranes
Experiment: CCR5 membrane binding assay (inhibition of RANTES binding)
Conditions: 125I-RANTES; membranes from NIH 3T3 cells expressing the human CCR5 chemokine receptor; one hour incubation
Protocol: CCR5 Membrane Binding Assay:
A high throughput screen utilizing a CCR5 membrane binding assay identifies inhibitors of RANTES binding. This assay utilizes membranes prepared from NIH 3T3 cells expressing the human CCR5 chemokine receptor which have the ability to bind to RANTES, a natural ligand for the receptor. […] Compounds are serially diluted over a wide range of 0.001 ug/ml to 1 ug/ml and tested in triplicates. Reaction cocktails are harvested through glass fiber filters, and washed thoroughly.

T1 sequence (P51681 whole entry): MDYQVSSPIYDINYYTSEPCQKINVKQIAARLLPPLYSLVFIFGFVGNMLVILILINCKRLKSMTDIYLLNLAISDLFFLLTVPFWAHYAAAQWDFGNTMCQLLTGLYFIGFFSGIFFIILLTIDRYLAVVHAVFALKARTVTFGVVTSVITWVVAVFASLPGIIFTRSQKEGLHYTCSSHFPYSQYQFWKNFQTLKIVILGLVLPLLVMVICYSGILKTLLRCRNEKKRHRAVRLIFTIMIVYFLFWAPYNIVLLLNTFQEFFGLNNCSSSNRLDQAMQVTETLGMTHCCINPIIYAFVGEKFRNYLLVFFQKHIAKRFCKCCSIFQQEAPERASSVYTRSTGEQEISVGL

Ki [nM] | Structure (SMILES)
10.5 | Cc1cccc(C)c1C(=O)N1CCC(N2CCN(C(C)c3ccc(I)cc3)C(C)C2)CC1 (centres unmarked) [Example 11]
60 | Cc1cccc(C)c1C(=O)N1CCC(N2CCN(C(C)c3ccc(-c4ccccc4)cc3)C(C)C2)CC1 (centres unmarked) [Example 16]
